Measured values reported in BindingDB's records for doi:10.7270/Q2H130FK (Nmmlsc, 2007).
Where a name gives a salt, the structure may show the parent alone.

What follows are compounds tested against T1, Integrin alpha-4 (Homo sapiens, UniProt P05556+P13612) (assay: inhibition of LDV ligand binding to VLA-4 – cell-based, LDV-FITC binding, flow cytometry, dose response (AID 702)).
T1 sequence (P13612 whole entry): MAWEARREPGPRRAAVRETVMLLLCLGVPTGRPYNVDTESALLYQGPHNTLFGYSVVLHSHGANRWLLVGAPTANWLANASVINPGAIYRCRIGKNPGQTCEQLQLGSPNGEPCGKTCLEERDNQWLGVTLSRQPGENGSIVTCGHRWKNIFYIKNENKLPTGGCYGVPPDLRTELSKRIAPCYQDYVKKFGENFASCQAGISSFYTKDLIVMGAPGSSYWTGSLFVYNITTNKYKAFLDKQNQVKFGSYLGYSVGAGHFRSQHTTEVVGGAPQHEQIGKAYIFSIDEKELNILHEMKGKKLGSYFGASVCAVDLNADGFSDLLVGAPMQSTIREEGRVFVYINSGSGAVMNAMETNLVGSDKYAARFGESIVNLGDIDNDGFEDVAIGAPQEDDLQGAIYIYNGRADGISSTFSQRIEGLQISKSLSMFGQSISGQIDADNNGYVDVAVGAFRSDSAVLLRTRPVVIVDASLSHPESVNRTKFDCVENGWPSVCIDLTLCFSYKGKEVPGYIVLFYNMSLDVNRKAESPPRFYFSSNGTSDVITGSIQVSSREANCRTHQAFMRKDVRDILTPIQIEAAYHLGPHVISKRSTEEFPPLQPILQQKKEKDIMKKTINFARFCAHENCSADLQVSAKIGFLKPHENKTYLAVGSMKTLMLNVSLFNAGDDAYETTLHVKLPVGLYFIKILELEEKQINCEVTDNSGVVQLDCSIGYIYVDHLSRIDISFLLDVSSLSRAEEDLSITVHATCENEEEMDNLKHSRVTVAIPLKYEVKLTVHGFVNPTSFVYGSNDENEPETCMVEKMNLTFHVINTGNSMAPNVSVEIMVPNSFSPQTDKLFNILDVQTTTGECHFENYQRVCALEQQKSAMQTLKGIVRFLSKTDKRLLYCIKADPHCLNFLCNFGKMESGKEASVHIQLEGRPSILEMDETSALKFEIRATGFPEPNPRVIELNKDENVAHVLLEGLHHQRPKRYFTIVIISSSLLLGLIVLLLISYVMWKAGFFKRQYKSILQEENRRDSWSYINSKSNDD

Going from `Nc1nonc1C(=O)NCCN=Cc1cc(Cc2ccccc2)cc(Br)c1O` [4-amino-N-[2-[[(E)-(3-benzyl-5-bromo-6-oxocyclohexa-2,4-dien-1-ylidene)methyl]amino]ethyl]-1,2,5-oxadiazole-3-carboxamide] to `CCOC(=O)c1cnc(-n2nc(C)cc2C)nc1NC(C)c1ccccc1` (centres undefined) [2-(3,5-dimethyl-1-pyrazolyl)-4-(1-phenylethylamino)-5-pyrimidinecarboxylic acid ethyl ester], the EC50 falls from over 100 µM to 100 µM.

Going from `CCOC(=O)c1c(C)oc2c1c1c(c3ccccc32)OCN(Cc2ccccn2)C1` [MLS000566323] to `Cc1ccccc1CS(=O)(=O)Cc1ccc(C(=O)NCc2ccccn2)o1` [5-[(2-methylbenzyl)sulfonylmethyl]-N-(2-pyridylmethyl)-2-furamide], the EC50 rises from 4.38 µM to over 100 µM.

Compared with `COc1ccc(-c2coc3c(CN4CCCCC4)c(O)c(CN4CCCCC4)c(O)c3c2=O)cc1` [3-(4-methoxyphenyl)-5,7-bis(oxidanyl)-6,8-bis(piperidin-1-ylmethyl)chromen-4-one], `Cc1cc(=O)oc2c(CN3CCC(C)CC3)c(O)c(Cl)cc12` [6-chloranyl-4-methyl-8-[(4-methylpiperidin-1-yl)methyl]-7-oxidanyl-chromen-2-one] is 22-fold lower in EC50: 100 µM for the first, 4.6 µM for the second. The second is the more potent here.

First: COc1ccc(-n2ncc3c(N4CCCc5ccccc54)ncnc32)cc1 [1-[1-(4-methoxyphenyl)-1H-pyrazolo[3,4-d]pyrimidin-4-yl]-1,2,3,4-tetrahydroquinoline]
Second: COc1cccc(N2CCN(c3ncnc4c3[nH]c3ccc(F)cc34)CC2C)c1 (centres undefined) [8-fluoranyl-4-[4-(3-methoxyphenyl)-3-methyl-piperazin-1-yl]-5H-pyrimido[5,4-b]indole]
The EC50 of the first is 6-fold higher: 52.6 µM for the first, 8.78 µM for the second. The second is the more potent here.

Going from `COCCNC(=O)C(c1ccncc1)N(C(=O)Cn1nnc2ccccc21)c1ccc(OC)cc1` (centres undefined) [2-(N-[2-(1-benzotriazolyl)-1-oxoethyl]-4-methoxyanilino)-N-(2-methoxyethyl)-2-pyridin-4-ylacetamide] to `COc1ccc(Nc2cc(C)nc3ccccc23)cc1` [(4-methoxyphenyl)-(2-methyl-4-quinolyl)amine;hydrochloride], the EC50 falls from over 100 µM to 4.27 µM. The second is the more potent here.

Going from `CCCOc1ccc(C(CC(=O)O)NC(=O)c2ccc3c(c2)OCO3)cc1` (centres undefined) [MLS000085916] to `COc1ccc(C(=O)Oc2ccc(C(C)=O)cc2)c(OC)c1` [(4-acetylphenyl) 2,4-dimethoxybenzoate], the EC50 falls from 11.2 µM to 5.14 µM (2.2-fold).

First: O=S(=O)(Nc1cccc2ncccc12)c1cccs1 [MLS000057468]
Second: O=S1(=O)Nc2c(ccc3cccnc23)-c2ccccc21 [5H-quinolino[8,7-c][1,2]benzothiazine 6,6-dioxide]
The EC50 of the first is 1.7-fold lower: 11.4 µM for the first, 19.9 µM for the second.

`COc1ccc(-c2nnc(Nc3nc4c(OC)cccc4s3)o2)cc1` [MLS000045458] and `COc1cccc2sc(Nc3nnc(-c4ccc(F)cc4)o3)nc12` [5-(4-fluorophenyl)-N-(4-methoxy-1,3-benzothiazol-2-yl)-1,3,4-oxadiazol-2-amine] are within 1.5-fold of each other in EC50: 7.92 µM for the first, 6.08 µM for the second.

Compared with `CN1C(=S)SC(N(O)C(=O)Nc2ccccc2)C1(C)C` (centres undefined) [1-hydroxy-3-phenyl-1-(3,4,4-trimethyl-2-sulfanylidene-1,3-thiazolidin-5-yl)urea], `C#CCN(C)C(C)Cc1ccccc1` (centres undefined) [Deprenyl] is higher in EC50: 31.8 µM for the first, over 100 µM for the second.

Compared with `CCOc1ccc2[nH]c(=O)c(CN(CC3COCCO3)C(=O)C3CC3)cc2c1` (centres undefined) [MLS000031787], `CCOc1ccc(-n2c(O)c(C=NCCN3CCNCC3)c(=O)[nH]c2=O)cc1` [SMR000057873] is 8.8-fold lower in EC50: 45.1 µM for the first, 5.13 µM for the second.

Compared with `O=c1c(CC[S+]([O-])c2ccccc2)c(O)n(-c2ccccc2)n1-c1ccccc1` (centres undefined) [1,2-Diphenyl-3,5-dioxo-4-(2-phenylsulfinylethyl)pyrazolidine], `CCCCc1c(O)n(-c2ccccc2)n(-c2ccccc2)c1=O` [3,5-Dioxo-1,2-diphenyl-4-n-butylpyrazolidine] is 16-fold lower in EC50: 17.3 µM for the first, 1.06 µM for the second.

Going from `CCOC(=O)c1sc(Nc2nc3c(OC)cccc3s2)nc1C` [SMR000027213] to `COc1cccc2sc(Nc3nc(-c4ccccn4)cs3)nc12` [(4-methoxy-1,3-benzothiazol-2-yl)-[4-(2-pyridyl)thiazol-2-yl]amine], the EC50 falls from 33.9 µM to 6.78 µM (5-fold). The second is the more potent here.

Going from `CC(N=O)C(=O)NCc1ccccn1` (centres undefined) [(2E)-2-(hydroxyimino)-N-(pyridin-2-ylmethyl)propanamide] to `Cc1ccc(C(=O)NCC(C)(C)O)cc1` [4-methyl-N-(2-methyl-2-oxidanyl-propyl)benzamide], the EC50 rises from 0.09 µM to 2.34 µM (26-fold). The first is the more potent here.

Going from `NC(=O)c1cc(N)ccc1N1CCCC1` [5-Amino-2-pyrrolidin-1-yl-benzamide] to `COc1ccc(OC)c(NC(=O)CCN2CCCC(C)C2)c1` (centres undefined) [MLS000070519], the EC50 falls from over 100 µM to 14.1 µM. The second is the more potent here.

Compared with `Cc1csc(NC(=O)CSc2nsc(SCC(=O)Nc3nc(C)cs3)c2C#N)n1` [2-[[4-cyano-3-[2-[(4-methyl-1,3-thiazol-2-yl)amino]-2-oxidanylidene-ethyl]sulfanyl-1,2-thiazol-5-yl]sulfanyl]-N-(4-methyl-1,3-thiazol-2-yl)ethanamide], `CCOC(=O)N1CCC(NC(=O)CSCc2nc(-c3ccc(OC)c(OC)c3)oc2C)CC1` [4-[[2-[[2-(3,4-dimethoxyphenyl)-5-methyl-4-oxazolyl]methylthio]-1-oxoethyl]amino]-1-piperidinecarboxylic acid ethyl ester] is 250-fold lower in EC50: 20.2 µM for the first, 0.08 µM for the second.

`COc1ccc(-c2nnc(Nc3nc4c(OC)cccc4s3)o2)c(OC)c1` [5-(2,4-dimethoxyphenyl)-N-(4-methoxy-1,3-benzothiazol-2-yl)-1,3,4-oxadiazol-2-amine] and `COc1cccc2sc(Nc3nnc(-c4cccs4)o3)nc12` [MolPort-003-038-736] are within 1.5-fold of each other in EC50: 2.84 µM for the first, 3.27 µM for the second.

First: CCCCC1(C(=O)OCC)CC(CN2CCOCC2)OC1=O (centres undefined) [3-butyl-2-keto-5-(morpholinomethyl)tetrahydrofuran-3-carboxylic acid ethyl ester]
Second: OC(CN1CCOCC1)CN(c1ccccc1)c1ccccc1 (centres undefined) [1-(4-morpholinyl)-3-(N-phenylanilino)-2-propanol;hydrochloride]
The EC50 of the first is 1.6-fold higher: 6.5 µM for the first, 4.13 µM for the second.
